Experiments:
Salmonella typhimurium = assay: Protective effect in immunodepressed mice experimentally infected with Salmonella typhimurium; format: in vivo; details: Salmonella typhimurium 1 × 10^3 cells
Description: Test 2 Assessment of the protective effect induced by ST 657, ST 733, ST 754 and ST 789 on immunodepressed mice experimentally infected.
Male CD1 mice (Charles River, Italy) of different ages were used: mice aged 6 and 12 weeks infected with Klebsiella and mice aged 7 weeks infected with Salmonella (10 mice per group).
Systemic infection in mice was induced via i.p. inoculum of either a pathogenic strain of Klebsiella (K. pneumoniae) or a pathogenic strain of Salmonella (S. typhimurium), which were able to provoke death of the animals within 5 and 20 days, respectively, following the challenge.
Infective doses prepared from overnight broth cultures corresponding to 1.5×10^5 and 3.5×10^5 live cells of K. pneumoniae, and 1×10^3 live cells of S. typhimurium were suspended in 0.2 mL of 5% gastric mucine and then injected.
The immunosuppressor (cyclophosphamide) was administered i.p. in 0.2 mL of sterile saline, 100 mg/kg, 5 days before the infective challenge.
The compounds were administered i.p., 0.25 and 25 mg/kg/day, from day -5 to day -1 (challenge at day 0).
The results obtained are expressed as % mortality and statistically processed with the Fisher's exact test (Biostatistics in Pharmacology, vol. II, Pergamon Press).

Leukemia L 1210 cells = assay: Protective effect in L 1210 Leukemia-bearing mice; format: in vivo; details: for Dead/total / MST (mean survival time calculated by the median and the first interquartile range): 0.25 mg/kg i.p. from day +1 to day +10; for Weight control (x ± S.E.): 0.25 mg/kg/day day +1 to +10, in g (unit assumed); for number of surviving animals at the indicated day: 0.25 mg/kg/day
Experimental: Test 4 Assessement of the protective effect of ST 657 and ST 789 in tumor-bearing mice.
Male DBA/2 mice and male CD1 mice (Charles River), both aged 6 weeks, were used.
DBA/2 mice were inoculated i.p. with 1×10^5 Leukemia L 1210 cells (ATCC-American Type Culture Collection-Cell Lines & Hybridomas, 5th Ed., 1985) in 0.1 mL of Hank's medium.
The compounds were adminstered i.p. in sterile saline (0.25 mg/kg/day) from day +1 to day +10 (tumor transplantation at day 0).
Also the body weight of the animals was monitored, from day 0 to day +16 for the L 1210 leukemia-bearing mice, and from day 0 to day +21 for the S 180 sarcoma-bearing mice.
Monitoring of body weight was conducted in order to evaluate the evolution of the neoplastic process. Compounds activity was assessed as Mean Survival Time (MST).

splenocytes = assay: "In vitro-ex vivo" mytogen (PHA)-induced splenocyte proliferation in mice
Experimental: Test 5 Assessment of the "in vitro-ex vivo" effect of ST 733 and ST 789 on the mytogen (PHA)-induced splenocyte proliferation in mice.
Male B6 D2 F1 mice (Charles River, Italy) aged 7-8 weeks (4 animals per group) were used.
PHA (phytohemagglutinine) active on T lymphocytes was used as mytogen. The mytogen was tested at three different concentrations (suboptimal, optimal, superoptimal): 0.5, 2 and 4 mcg/mL/well.
The compounds were administered i.p. 25 mg/kg/day from day -5 to day -1 (spleen excision at day 0).
The experimental procedure was conducted substantially as described by Kirchner et al, "Splenic suppressor macrophages induced in mice by injection of C. parvum", J. Immunol., 1975, 115:1212.
In particular, the cell suspensions obtained from the spleens of the animals of the same group were pooled and the cell concentration was adjusted to 5×10^6 cell/mL.
To volumes of 0.1 mL of each sample, equal volumes of the mytogen preparation were added so as to obtain the previously indicated final concentrations.
Each sample was prepared in triplicate in U-bottom microtiters. A control, to which 0.1 mL of medium was added instead of the mytogen, was also prepared. The control permits the extent of spontaneous proliferation in the absence of stimulation to be assessed.
The samples were incubated at 37° C. for 48 hours and then they were pulsed with 20 μL ^3 H-TdR (25 μCi/mL).
After 18 hours of further incubation, the cells were collected on filters and counted in a beta-counter to evaluate the incorporated radioactivity (in cpm).
The results for each sample are expressed by calculating the value of the area under the curve (AUC) obtained by plotting the values of the incorporated radioactivity (in cpm) versus the three concentrations of mytogen.
In addition to AUC, also the stimulation index (SI) is considered, that is defined as follows: [formula]

DTH reaction vs. SRBC = assay: Delayed type hypersensitivity test (DTH) vs. SRBC in mice; format: in vivo; details: 25 mg/kg/day i.p. from day -3 to day +3 respect to the immunization
Experimental: Test 6 Assessment of the effect of ST 785 and ST 789 on the delayed type hypersensitivity test (DTH).
Male B6 D2 F1 mice (Charles River, Italy) aged 6, 12 and 16 weeks (8 animals per group) were used.
The compounds were administered i.p., 25 mg/kg/day from day -3 to day +3 (immunization at day 0). Immunization was carried out by s.c. injection in the upper dorsal zone of the animals of 0.2 mL of SRBC (5×10^7 cells/mL).
Four days following the sensitizing injection, the animals were administered the challenge injection to bring about the delayed hypersensibility reaction. 50 μL of SRBC solution (2×10^9 cells/mL) were injected in the left hind foot-pad of the mice. The contralateral foot-pad received an equal volume of PBS. 24 hours after the challenge injection, the animals were sacrificed by cervical dislocation. The legs were amputated and the differences in weight between the left leg (treated with the challenge injection) and the contralateral leg were evaluated.
The mean of weight differences in the legs of the animals of the same experimental group was determined; the differences in the mean values calculated for each experimental group were processed using Student's "t" test (Biostatistics in Pharmacology, loc cit.).
The experimental procedure which was used is described by Miller, T. E. et al, (1973), Immunopotentiation with BCG. Modulation of the response to sheep red blood cells. J. Cancer Inst., 51:1669.

thymocytes = assay: "In vitro-ex vivo" mytogen (PHA, Con A)-induced murine thymocite proliferation; set-up: species or system mice; details: 25 mg/kg/day i.p. from day -4 to day -1
Experimental: Test 7 Assessment of the "in vitro-ex vivo" effect of ST 754, ST 785 and ST 789 on the mytogen (PHA, Con A)-induced murine thymocite proliferation.
The compounds were administered at the dose of 25 mg/kg/day from day -4 to day -1 (thymus excision at day 0). This test was conducted following the procedure described for test 5.
The Stimulation Index (S.I.) is as defined in test 5.

[1] = 0.25 mg/kg/day i.p. day -5 to -1
[2] = 25 mg/kg/day i.p. from day -5 to day -1

Compound: N=C(N)NCCC[C@H](NC(=O)OCCCCCn1cnc2c(=O)[nH]cnc21)C(=O)O [ST 789, N-5-(ipoxantin-9-yl) pentyloxycarbonylarginine, reference compound]
- % Mortality (Salmonella typhimurium; [1]): 10%
- % Mortality (Salmonella typhimurium; 25 mg/kg/day i.p. day -5 to -1): 20%
- Dead/total (Leukemia L 1210 cells): 9/9
- MST (mean survival time calculated by the median and the first interquartile range) (Leukemia L 1210 cells): 14.0 (14.0-15.0)
- Weight control (x ± S.E.) (Leukemia L 1210 cells; Day 0): 18.2 ± 0.3
- Weight control (x ± S.E.) (Leukemia L 1210 cells; Day 2): 18.0 ± 0.4
- Weight control (x ± S.E.) (Leukemia L 1210 cells; Day 4): 19.1 ± 0.3
- Weight control (x ± S.E.) (Leukemia L 1210 cells; Day 7): 20.1 ± 0.4
- Weight control (x ± S.E.) (Leukemia L 1210 cells; Day 9): 21.8 ± 0.4
- Weight control (x ± S.E.) (Leukemia L 1210 cells; Day 11): 24.0 ± 0.4
- number of surviving animals at the indicated day (Leukemia L 1210 cells; Day 14): 3
- Weight control (x ± S.E.) (Leukemia L 1210 cells; Day 14): 22.7 ± 0.9
- number of surviving animals at the indicated day (Leukemia L 1210 cells; Day 16): 1
- Weight control (x ± S.E.) (Leukemia L 1210 cells; Day 16): 22.5
- Body weight (splenocytes; [2]): 23.9 ± 0.1 g
- Spleen weight (splenocytes; [2]): 87.0 ± 4.5 mg
- Thymus weight (splenocytes; [2]): 64.5 ± 4.6 mg
- PHA AUC (area under curve, cpm versus three mytogen concentrations) (splenocytes; PHA 0.5, 2 and 4 mcg/mL/well, 25 mg/kg/day i.p. from day -5 to day -1): 114 × 10^-3
- PHA I.S. (stimulation index) (splenocytes; PHA-induced proliferation, 25 mg/kg/day i.p. from day -5 to day -1): 1.30
- mytogen-induced proliferation versus the controls (in words) (splenocytes; PHA, 25 mg/kg/day i.p.): slight increase
- Splenocytes No. (× 10^7) (splenocytes; pooled samples, 25 mg/kg/day i.p. from day -5 to day -1): 10.0 × 10^7
- Mean difference in weight (mg ± S.E.) between treated and untreated foot-pads (DTH reaction vs. SRBC): 34.9 ± 0.76 mg
- Body weight (thymocytes): 22.8 ± 0.5 g
- Thymus weight (thymocytes): 74.2 ± 4.4 mg
- Con A AUC (× 10^-3) (thymocytes; Con A-induced proliferation): 68 × 10^-3
- Con A I.S. (stimulation index) (thymocytes; Con A-induced proliferation): 1.10
- PHA AUC (area under curve) (thymocytes; PHA-induced proliferation): 3924
- PHA I.S. (stimulation index) (thymocytes; PHA-induced proliferation): 1.40
- Thymocytes No. (× 10^7) (thymocytes; pooled samples): 12.1 × 10^7

Compound: N-5-(ipoxantin-9-yl) pentyloxycarbonyl glycyl L-aspartate disodium salt [ST 657]
- % Mortality (Salmonella typhimurium; [1]): 0%
- % Mortality (Salmonella typhimurium; 25 mg/kg/day i.p. day -5 to -1): 0%
- Dead/total (Leukemia L 1210 cells): 10/10
- MST (mean survival time calculated by the median and the first interquartile range) (Leukemia L 1210 cells): 15.5 (13.0-17.0)
- Weight control (x ± S.E.) (Leukemia L 1210 cells; Day 0): 18.2 ± 0.5
- Weight control (x ± S.E.) (Leukemia L 1210 cells; Day 2): 18.2 ± 0.5
- Weight control (x ± S.E.) (Leukemia L 1210 cells; Day 4): 18.8 ± 0.5
- Weight control (x ± S.E.) (Leukemia L 1210 cells; Day 7): 20.1 ± 0.4
- Weight control (x ± S.E.) (Leukemia L 1210 cells; Day 9): 21.7 ± 0.6
- Weight control (x ± S.E.) (Leukemia L 1210 cells; Day 11): 23.9 ± 0.8
- number of surviving animals at the indicated day (Leukemia L 1210 cells; Day 14): 6
- Weight control (x ± S.E.) (Leukemia L 1210 cells; Day 14): 23.1 ± 0.6
- number of surviving animals at the indicated day (Leukemia L 1210 cells; Day 16): 3
- Weight control (x ± S.E.) (Leukemia L 1210 cells; Day 16): 22.4 ± 0.6

From US5298621A, “Oligopeptide derivatives of ipoxantine endowed with immunomodulating activity and pharmaceutical compositions containing same” (Sigma-Tau Industrie Farmaceutiche Riunite S.p.A., priority 1990, dated 1994)
